Test results reported in patent publication US8735387B2, “Oxazolopyrimidines as Edg-1 receptor agonists” (Sanofi, priority 2008, dated 2014).

These compounds were tested against T1, human Edg-1 receptor (Homo sapiens, UniProt P21453) (assay: GTP-γ-S assay using human Edg-1 receptors (scintillation proximity assay, membrane preparation from CHO Flp-In cell line)). Conditions: example compound at 10 μM; relative to 10 μM S1P; GTP-γ-S SPA, human Edg-1 membranes.
T1 construct: expressed in transfected cells; membrane preparation
T1 sequence (P21453 whole entry): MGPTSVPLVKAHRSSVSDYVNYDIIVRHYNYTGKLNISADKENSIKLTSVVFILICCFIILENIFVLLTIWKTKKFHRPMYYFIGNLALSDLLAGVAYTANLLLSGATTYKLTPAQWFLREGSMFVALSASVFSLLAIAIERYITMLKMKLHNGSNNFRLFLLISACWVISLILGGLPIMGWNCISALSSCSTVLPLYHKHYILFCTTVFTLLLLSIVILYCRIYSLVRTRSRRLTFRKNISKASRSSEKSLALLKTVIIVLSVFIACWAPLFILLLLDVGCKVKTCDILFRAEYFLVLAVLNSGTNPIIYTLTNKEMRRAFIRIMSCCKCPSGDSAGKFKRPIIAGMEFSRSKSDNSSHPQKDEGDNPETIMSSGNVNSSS
Format: biochemical
Summary of the method: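 Scintillation proximity GTP-γ-S binding assay measuring receptor activation. Membranes prepared from a CHO Flp-In line stably overexpressing N-terminally FLAG-tagged human Edg-1.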

| Structure (SMILES) | % Activation (Edg-1 receptor activation in percent of the activation by 10 μM S1P) [%] |
| --- | --- |
| CCOc1nc(Cc2ccc(Cl)cc2)nc2oc(-c3cccc(OCC(=O)O)c3)nc12 [Example 310] | 87 |
| CCOc1nc(Cc2ccc(Cl)cc2)nc2oc(-c3cc(C)c(OCC(=O)N4CCC[C@H]4C(=O)O)c(C)c3)nc12 [Example 311] | 78 |
| CCCOc1nc(Cc2ccc(Cl)cc2)nc2oc(-c3cc(C)c(OCC(O)CNC4CCN(C)CC4)c(C)c3)nc12 (centres unmarked) [Example 313] | 143 |
| CCOc1nc(Cc2ccc(Cl)cc2)nc2oc(-c3cc(C)c(OCC(=O)NCCC(=O)O)c(C)c3)nc12 [Example 314] | 96 |

Second part, the compound after the results:

| % Activation (Edg-1 receptor activation in percent of the activation by 10 μM S1P) [%] | Structure (SMILES) |
| --- | --- |
| 79 | CCCOc1nc(Cc2ccc(Cl)cc2)nc2oc(-c3cc(C)c(OCC4CC4)c(C)c3)nc12 [Example 315] |
| 70 | CCCOc1nc(Cc2ccc(Cl)cc2)nc2oc(-c3cc(C)c(OCC(=O)CC)c(C)c3)nc12 [Example 316] |
| 105 | CCCOc1nc(Cc2ccccc2)nc2oc(-c3cccc(OC)c3)nc12 [Example 317] |
| 101 | CCOc1nc(Cc2ccc(Cl)cc2)nc2oc(-c3cc(C)c(OCC(=O)N4CC[C@@H]5C[C@@]54C(=O)O)c(C)c3)nc12 [Example 318] |
